Source: patent US20220332700A1, “NOVEL APOPTOSIS SIGNAL-REGULATING KINASE 1 INHIBITORS” (MANKIND PHARMA LTD, priority 2019, published 2022)

Molecular target: T1, ASK2 (Homo sapiens, UniProt O95382)
T1 construct: purchased Carna Biosciences
T1 sequence (O95382 1-1288): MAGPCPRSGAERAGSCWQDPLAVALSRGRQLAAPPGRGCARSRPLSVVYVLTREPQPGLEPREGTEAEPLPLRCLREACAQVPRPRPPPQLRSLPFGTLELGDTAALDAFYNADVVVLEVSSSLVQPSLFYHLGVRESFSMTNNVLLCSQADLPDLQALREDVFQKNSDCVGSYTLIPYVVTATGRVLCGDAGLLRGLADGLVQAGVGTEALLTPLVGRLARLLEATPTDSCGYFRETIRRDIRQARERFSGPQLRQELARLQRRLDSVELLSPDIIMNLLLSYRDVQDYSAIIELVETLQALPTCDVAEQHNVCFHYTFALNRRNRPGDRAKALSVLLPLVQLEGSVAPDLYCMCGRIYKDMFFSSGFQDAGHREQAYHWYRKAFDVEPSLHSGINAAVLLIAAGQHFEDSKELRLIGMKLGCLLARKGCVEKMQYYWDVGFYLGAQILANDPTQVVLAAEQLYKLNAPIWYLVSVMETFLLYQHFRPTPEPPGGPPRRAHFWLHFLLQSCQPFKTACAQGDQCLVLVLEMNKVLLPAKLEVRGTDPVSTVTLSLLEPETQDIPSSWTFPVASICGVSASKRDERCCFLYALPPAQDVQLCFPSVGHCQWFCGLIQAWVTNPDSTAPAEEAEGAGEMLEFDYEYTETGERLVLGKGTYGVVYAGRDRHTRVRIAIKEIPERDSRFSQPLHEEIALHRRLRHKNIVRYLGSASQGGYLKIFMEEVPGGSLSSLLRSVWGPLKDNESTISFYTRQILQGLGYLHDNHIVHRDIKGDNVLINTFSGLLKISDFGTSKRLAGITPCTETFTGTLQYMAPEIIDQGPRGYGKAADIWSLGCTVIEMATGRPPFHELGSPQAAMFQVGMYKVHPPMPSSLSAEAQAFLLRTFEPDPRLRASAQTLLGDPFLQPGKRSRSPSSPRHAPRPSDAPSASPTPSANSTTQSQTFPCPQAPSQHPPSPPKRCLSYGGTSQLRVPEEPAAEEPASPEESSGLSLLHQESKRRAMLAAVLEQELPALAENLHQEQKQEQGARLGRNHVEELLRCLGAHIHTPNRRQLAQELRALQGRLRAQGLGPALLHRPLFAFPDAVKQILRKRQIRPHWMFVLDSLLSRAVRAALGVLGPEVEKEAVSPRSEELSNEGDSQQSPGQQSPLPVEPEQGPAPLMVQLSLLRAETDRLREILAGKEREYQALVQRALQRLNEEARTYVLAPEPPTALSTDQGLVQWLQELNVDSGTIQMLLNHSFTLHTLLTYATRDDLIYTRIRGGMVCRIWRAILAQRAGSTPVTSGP
Test: ASK2 biochemical assay (selectivity assay)
Settings: ATP 100 μM
Experimental: ASK2 assay was performed to evaluate above mentioned example for its selectivity towards ASK1 with respect ASK 2.
ASK2 biochemical assay was standardized using ASK2 (Carna Biosciences), MBP biotin conjugate (Merk life science), ATP, streptavidin surelight APC (PerkinElmer) and Lance Eu-W1024-antiphospho threonine (PerkinElmer). Enzyme concentration, ATP, MBP biotin conjugate and antibodies were titrated for enzyme assay. Assay was carried out in freshly prepared ASK2 kinase buffer, 5 mM MOPS pH-7.2, 2.5 mM β-glycerophosphate, 5 mM magnesium chloride (MgCl2), 1 mM EGTA, 0.4 mM EDTA, 0.05 mM DTT and 0.05% BSA. DMSO was used as vehicle control with a final concentration of 1%. A 40 ng of ASK2 enzyme was incubated with compound for 1 hour at 23° C. on a shaker at 100rpm. ATP and MBP biotin conjugate (as substrate) was added at a final concentration of 100 μM and 0.1mg/ml respectively and incubated for 3 hours at 23° C. on a shaker at 100rpm. Detection reagents streptavidin surelight APC (55.56nM), lance Eu-W1024-antiphospho threonine antibody (1.11nM) and 1X lance detection buffer were added and incubated for 2 hour at room temperature on a shaker at 100rpm. Delta F ratios were calculated from data obtained at excitation (337 nm) and emission wavelengths (665 nm and 620-10 nm). Substrate blank values were considered as negative control. Values from negative control were subtracted from vehicle control and compound treated wells. Enzyme inhibition by compounds was calculated from vehicle controls, which represent uninterrupted enzyme's activity.

SMILES: CC(C)n1cnnc1-c1cccc(N2CCN(c3ccc(N4CCOCC4)cc3)C2=O)n1 [Example 1043, 1-(6-(4-isopropyl-4H-1,2,4-triazol-3-yl)pyridin-2-yl)-3-(4-morpholinophenyl)imidazolidin-2-one]
- IC50: > 10 µM

SMILES: CC(C)n1cnnc1-c1cccc(N2CCN(c3ccc(N4CC(C#N)C4)cc3)C2=O)n1 [Example 1071, 1-(4-(3-(6-(4-isopropyl-4H-1,2,4-triazol-3-yl)pyridin-2-yl)-2-oxoimidazolidin-1-yl)phenyl)azetidine-3-carbonitrile]
- IC50: > 10 µM

SMILES: CNC(=O)C1CCN(c2ccc(N3CCN(c4cccc(-c5nncn5C(C)C)n4)C3=O)cc2)CC1 [Example 1082, 1-(4-(3-(6-(4-isopropyl-4H-1,2,4-triazol-3-yl)pyridin-2-yl)-2-oxoimidazolidin-1-yl)phenyl)-N-methylpiperidine-4-carboxamide]
- IC50: 8.5 µM

SMILES: CC(C)n1cnnc1-c1cccc(N2CCN(c3ccc(N4CCC(C(=O)N(C)C)CC4)cc3)C2=O)n1 [Example 1097, 1-(4-(3-(6-(4-isopropyl-4H-1,2,4-triazol-3-yl)pyridin-2-yl)-2-oxoimidazolidin-1-yl)phenyl)-N,N-dimethylpiperidine-4-carboxamide]
- IC50: 7.9 µM
